From ChEMBL document CHEMBL1155102, “Synthesis of all stereoisomers of KRN7000, the CD1d-binding NKT cell ligand” (Bioorg Med Chem Lett, 2008)
Activity calls are given as the source filed them. The rule behind the calls is not given here.

What was measured:
Type in all cases: functional, cell-based
iNKT [1] = test: Induction of IL4 production in mouse iNKT cells
iNKT [2] = test: Induction of IFN-gamma production in human iNKT cells
iNKT [3] = test: Induction of IL4 production in human iNKT cells
iNKT [4] = test: Induction of proliferation in mouse iNKT cells
iNKT [5] = test: Induction of IFN-gamma production in mouse iNKT cells
iNKT [6] = test: Induction of IL4/IL13 production in mouse iNKT cells
iNKT [7] = test: Induction of IL13 production in human iNKT cells

SMILES: CCCCCCCCCCCCCCCCCCCCCCCCCC(=O)N[C@H](CO[C@H]1O[C@H](CO)[C@H](O)[C@H](O)[C@H]1O)[C@@H](O)[C@H](O)CCCCCCCCCCCCCC
- Activity (iNKT [1]): Active

SMILES: CCCCCCCCCCCCCCCCCCCCCCCCCC(=O)N[C@H](CO[C@H]1O[C@H](CO)[C@H](O)[C@H](O)[C@H]1O)[C@H](O)[C@H](O)CCCCCCCCCCCCCC
- Activity (iNKT [2]): inactive
- Activity (iNKT [3]): inactive

SMILES: CCCCCCCCCCCCCCCCCCCCCCCCCC(=O)N[C@@H](CO[C@H]1O[C@H](CO)[C@H](O)[C@H](O)[C@H]1O)[C@H](O)[C@H](O)CCCCCCCCCCCCCC
- Activity (iNKT [4]): Active
- Activity (iNKT [5]): Active
- Activity (iNKT [6]): Active
- Activity (iNKT [2]): Active
- Activity (iNKT [3]): Active
- Activity (iNKT [7]): Active

SMILES: CCCCCCCCCCCCCCCCCCCCCCCCCC(=O)N[C@@H](CO[C@H]1O[C@H](CO)[C@H](O)[C@H](O)[C@H]1O)[C@@H](O)[C@H](O)CCCCCCCCCCCCCC
- Activity (iNKT [4]): Active
- Activity (iNKT [1]): Active
- Activity (iNKT [2]): Active
- Activity (iNKT [3]): Active
- Activity (iNKT [7]): Active

SMILES: CCCCCCCCCCCCCCCCCCCCCCCCCC(=O)N[C@@H](CO[C@H]1O[C@H](CO)[C@H](O)[C@H](O)[C@H]1O)[C@@H](O)[C@@H](O)CCCCCCCCCCCCCC
- Activity (iNKT [1]): Active
- Activity (iNKT [2]): Active
- Activity (iNKT [3]): Active
- Activity (iNKT [7]): Active

SMILES: CCCCCCCCCCCCCCCCCCCCCCCCCC(=O)N[C@@H](CO[C@H]1O[C@H](CO)[C@H](O)[C@H](O)[C@H]1O)[C@H](O)[C@@H](O)CCCCCCCCCCCCCC
- Activity (iNKT [4]): Active
- Activity (iNKT [5]): Active
- Activity (iNKT [6]): Active
- Activity (iNKT [2]): Active
- Activity (iNKT [3]): Active
- Activity (iNKT [7]): Active

SMILES: CCCCCCCCCCCCCCCCCCCCCCCCCC(=O)N[C@H](CO[C@H]1O[C@H](CO)[C@H](O)[C@H](O)[C@H]1O)[C@@H](O)[C@@H](O)CCCCCCCCCCCCCC
- Activity (iNKT [4]): Active
